Source: the supplement of paper PMC10307832

Legend:
Experiment in all cases: relative viability (nuclei count vs DMSO), 5 days (fraction); higher = more cells survive
[1] = tested on: NCI-H2170
Method in brief: (§1)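 Lung cancer cell lines in 1536-well plates got either a single drug or a fixed anchor-drug dose together with five library-drug doses (not always all listed) in √10 steps, by pin tool, on the day after seeding. Nuclei were counted after 5 days, and relative viability is the treated-to-vehicle ratio of nuclei counts. Values are medians of duplicate plates.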

[2] = tested on: HARA
Method in brief: as §1

[3] = tested on: LK-2
Method in brief: as §1

[4] = tested on: NCI-H460
Method in brief: as §1

[5] = tested on: ABC-1
Method in brief: as §1

[6] = tested on: NCI-H3122
Method in brief: as §1

[7] = tested on: HCC-366
Method in brief: as §1

[8] = tested on: NCI-H661
Method in brief: as §1

[9] = tested on: CAL-12T
Method in brief: as §1

[10] = tested on: 201T
Method in brief: as §1

[11] = tested on: NCI-H1650
Method in brief: as §1

[12] = tested on: NCI-H1437
Method in brief: as §1

[13] = tested on: NCI-H727
Method in brief: as §1

[14] = tested on: PC-14
Method in brief: as §1

[15] = tested on: BEN
Method in brief: as §1

[16] = tested on: LOU-NH91
Method in brief: as §1

[17] = tested on: EKVX
Method in brief: as §1

[18] = tested on: COR-L 105
Method in brief: as §1

[19] = tested on: NCI-H2009
Method in brief: as §1

[20] = tested on: NCI-H1666
Method in brief: as §1

In the case of `COc1nc(C)cnc1NS(=O)(=O)c1cccnc1-c1ccc(-c2nnco2)cc1` [Zibotentan] + CS(=O)(=O)CCNCc1ccc(-c2ccc3ncnc(Nc4ccc(OCc5cccc(F)c5)c(Cl)c4)c3c2)o1 [Lapatinib] (partner 2 µM), the relative viability ([1]; first compound 0.08 µM) is reported as 0.27, the relative viability ([1]; first compound 0.253 µM) is reported as 0.264 and the relative viability ([1]; first compound 0.8 µM) is reported as 0.251. The relative viability ([1]; first compound 2.53 µM) was 0.285, the relative viability ([2]; first compound 0.08 µM) was 0.734 and the relative viability ([2]; first compound 0.253 µM) was 0.813. The relative viability ([2]; first compound 0.8 µM) was 0.742, the relative viability ([2]; first compound 2.53 µM) was 0.837 and the relative viability ([3]; first compound 0.08 µM) was 1.02. It also gave a relative viability ([3]; first compound 0.253 µM) of 0.885, a relative viability ([3]; first compound 0.8 µM) of 0.917 and a relative viability ([3]; first compound 2.53 µM) of 0.986. It also gave a relative viability ([4]; first compound 0.08 µM) of 1.04, a relative viability ([4]; first compound 0.8 µM) of 1.03 and a relative viability ([4]; first compound 2.53 µM) of 1.12. For the same compound, the relative viability ([5]; first compound 0.08 µM) was 1.28, the relative viability ([5]; first compound 0.253 µM) was 0.885 and the relative viability ([5]; first compound 0.8 µM) was 0.971. For the same compound, the relative viability ([5]; first compound 2.53 µM) was 1.28, the relative viability ([6]; first compound 0.08 µM) was 0.99 and the relative viability ([6]; first compound 0.253 µM) was 1.03. The relative viability ([6]; first compound 0.8 µM) was 1.03, the relative viability ([6]; first compound 2.53 µM) was 1.01 and the relative viability ([7]; first compound 0.08 µM) was 1.17. The relative viability ([7]; first compound 0.253 µM) was 0.955, the relative viability ([7]; first compound 0.8 µM) was 0.653 and the relative viability ([7]; first compound 2.53 µM) was 1.02. The relative viability ([8]; first compound 0.08 µM) was 0.453, the relative viability ([8]; first compound 0.253 µM) was 0.445 and the relative viability ([8]; first compound 0.8 µM) was 0.445. For the same compound, the relative viability ([8]; first compound 2.53 µM) was 0.46, the relative viability ([9]; first compound 0.08 µM) was 0.606 and the relative viability ([9]; first compound 0.8 µM) was 0.55. It also gave a relative viability ([9]; first compound 2.53 µM) of 0.652, a relative viability ([10]; first compound 0.08 µM) of 1.03 and a relative viability ([10]; first compound 0.253 µM) of 0.977. For the same compound, the relative viability ([10]; first compound 0.8 µM) was 1.11, the relative viability ([10]; first compound 2.53 µM) was 1.02 and the relative viability ([11]; first compound 0.08 µM) was 0.732. The relative viability ([11]; first compound 0.8 µM) was 0.781, the relative viability ([11]; first compound 2.53 µM) was 0.813 and the relative viability ([12]; first compound 0.08 µM) was 0.73. For the same compound, the relative viability ([12]; first compound 0.253 µM) was 0.557, the relative viability ([12]; first compound 0.8 µM) was 0.804 and the relative viability ([12]; first compound 2.53 µM) was 0.827. It also gave a relative viability ([13]; first compound 0.08 µM) of 0.879, a relative viability ([13]; first compound 0.253 µM) of 0.739 and a relative viability ([13]; first compound 0.8 µM) of 0.781. The relative viability ([13]; first compound 2.53 µM) was 1.16, the relative viability ([14]; first compound 0.08 µM) was 0.322 and the relative viability ([14]; first compound 0.253 µM) was 0.314. For the same compound, the relative viability ([14]; first compound 0.8 µM) was 0.344, the relative viability ([14]; first compound 2.53 µM) was 0.348 and the relative viability ([15]; first compound 0.08 µM) was 0.762. The relative viability ([15]; first compound 0.253 µM) was 0.721, the relative viability ([15]; first compound 0.8 µM) was 0.68 and the relative viability ([15]; first compound 2.53 µM) was 0.605. The relative viability ([16]; first compound 0.08 µM) was 0.835, the relative viability ([16]; first compound 0.253 µM) was 0.662 and the relative viability ([16]; first compound 0.8 µM) was 0.771. For the same compound, the relative viability ([16]; first compound 2.53 µM) was 0.782, the relative viability ([17]; first compound 0.08 µM) was 0.184 and the relative viability ([17]; first compound 0.253 µM) was 0.216. It also gave a relative viability ([17]; first compound 0.8 µM) of 0.194, a relative viability ([17]; first compound 2.53 µM) of 0.198 and a relative viability ([18]; first compound 0.08 µM) of 0.394. For the same compound, the relative viability ([18]; first compound 0.253 µM) was 0.35, the relative viability ([18]; first compound 0.8 µM) was 0.394 and the relative viability ([18]; first compound 2.53 µM) was 0.4. The relative viability ([19]; first compound 0.08 µM) was 0.921, the relative viability ([19]; first compound 0.253 µM) was 0.82 and the relative viability ([19]; first compound 0.8 µM) was 1. For the same compound, the relative viability ([19]; first compound 2.53 µM) was 1.02, the relative viability ([20]; first compound 0.08 µM) was 0.63 and the relative viability ([20]; first compound 0.253 µM) was 0.435. The relative viability ([20]; first compound 0.8 µM) was 0.495 and the relative viability ([20]; first compound 2.53 µM) was 0.688.
